Measurements as given in patent US10750743B2, “Pyridazinone herbicides” (E.I. DU PONT DE NEMOURS AND COMPANY, priority 2015, dated 2020).

Key:
Format in all cases: in vivo
[1] = tested on: barnyardgrass (Echinochloa crus-galli); assay: Test A preemergence, directed soil spray, visual injury rating; details: 0 is no effect, 100 is complete control
Summary of the method: (§1)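 Compounds in a surfactant-containing solvent were applied as a directed soil spray preemergence, or postemergence to plants 2-10 cm tall at the one- to two-leaf stage, in loam-sand blend. After about 10 d in the greenhouse, injury was rated visually against untreated controls on a 0-100 scale (100 = complete control).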

[2] = tested on: ryegrass, It. (Italian ryegrass, Lolium multiflorum); assay: as above; details: 0 is no effect, 100 is complete control
Summary of the method: as §1

[3] = tested on: ragweed (common ragweed, Ambrosia elatior); assay: as above; details: 0 is no effect, 100 is complete control
Summary of the method: as §1

[4] = tested on: foxtail, giant (giant foxtail, Setaria faberii); assay: as above; details: 0 is no effect, 100 is complete control
Summary of the method: as §1

[5] = tested on: pigweed (Amaranthus retroflexus); assay: as above; details: 0 is no effect, 100 is complete control
Summary of the method: as §1

kochia (Kochia scoparia) [6] = assay: as above; details: 0 is no effect, 100 is complete control
Summary of the method: as §1

[7] = tested on: barnyardgrass (Echinochloa crus-galli); assay: Test B flooded paddy test, visual rating; details: Flood, 250 g ai/ha, applied to paddy water, rated after 13 to 15 d
Summary of the method: (§2)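 Plants grown to the 2-leaf stage. At treatment, pots were flooded to 3 cm above the soil, compound was applied directly to the paddy water, and that depth was held throughout. After 13 to 15 d in the greenhouse, response was rated visually against controls on a 0 (no effect) to 100 (complete control) scale.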

[8] = tested on: sedge, umbrella (small-flower umbrella sedge, Cyperus difformis); assay: Test B flooded paddy test, visual rating; details: Flood, 250 g ai/ha, applied to paddy water, rated after 13 to 15 d
Summary of the method: as §2

[9] = tested on: ducksalad (Heteranthera limosa); assay: Test B flooded paddy test, visual rating; details: Flood, 250 g ai/ha, applied to paddy water, rated after 13 to 15 d
Summary of the method: as §2

rice (Oryza sativa) = assay: Test B flooded paddy test, visual rating; details: Flood, 250 g ai/ha, applied to paddy water, rated after 13 to 15 d
Summary of the method: as §2

[10] = tested on: galium (catchweed bedstraw, Galium aparine); assay: Test A postemergence application, visual injury rating; details: 0 to 100 scale, 0 no effect, 100 complete control
Summary of the method: as §1

[11] = tested on: barnyardgrass (Echinochloa crus-galli); assay: as above; details: 0 to 100 scale, 0 no effect, 100 complete control
Summary of the method: as §1

[12] = tested on: ryegrass, It. (Italian ryegrass, Lolium multiflorum); assay: as above; details: 0 to 100 scale, 0 no effect, 100 complete control
Summary of the method: as §1

[13] = tested on: wheat (Triticum aestivum); assay: as above; details: 0 to 100 scale, 0 no effect, 100 complete control
Summary of the method: as §1

[14] = tested on: ragweed (common ragweed, Ambrosia elatior); assay: as above; details: 0 to 100 scale, 0 no effect, 100 complete control
Summary of the method: as §1

corn (Zea mays) = assay: as above; details: 0 to 100 scale, 0 no effect, 100 complete control
Summary of the method: as §1

[15] = tested on: blackgrass (Alopecurus myosuroides); assay: as above; details: 0 to 100 scale, 0 no effect, 100 complete control
Summary of the method: as §1

[16] = tested on: foxtail, giant (giant foxtail, Setaria faberii); assay: as above; details: 0 to 100 scale, 0 no effect, 100 complete control
Summary of the method: as §1

[17] = tested on: pigweed (Amaranthus retroflexus); assay: as above; details: 0 to 100 scale, 0 no effect, 100 complete control
Summary of the method: as §1

kochia (Kochia scoparia) [18] = assay: as above; details: 0 to 100 scale, 0 no effect, 100 complete control
Summary of the method: as §1

Cc1cc2c(Cl)ccc(-c3c(OC(=O)c4ccccc4)c(C)nn(C)c3=O)c2o1 [Compound 39]
Plant response rating (0 to 100 scale), Barnyardgrass ([1]; 31 g ai/ha): 0
Plant response rating (0 to 100 scale), Barnyardgrass ([1]; 125 g ai/ha): 0
Plant response rating (0 to 100 scale), Ryegrass, It. ([2]; 31 g ai/ha): 10
Plant response rating (0 to 100 scale), Ryegrass, It. ([2]; 125 g ai/ha): 50
Plant response rating (0 to 100 scale), Ragweed ([3]; 31 g ai/ha): 0
Plant response rating (0 to 100 scale), Ragweed ([3]; 125 g ai/ha): 0
Plant response rating (0 to 100 scale), Foxtail, Giant ([4]; 31 g ai/ha): 0
Plant response rating (0 to 100 scale), Foxtail, Giant ([4]; 125 g ai/ha): 0
Plant response rating (0 to 100 scale), Pigweed ([5]; 31 g ai/ha): 0
Plant response rating (0 to 100 scale), Pigweed ([5]; 125 g ai/ha): 0
Plant response rating (0 to 100 scale), Kochia (kochia (Kochia scoparia) [6]; 31 g ai/ha): 0
Plant response rating (0 to 100 scale), Kochia (kochia (Kochia scoparia) [6]; 125 g ai/ha): 0
Barnyardgrass plant response rating (0 to 100 scale, 0 is no effect, 100 is complete control) [7]: 0
Sedge, Umbrella plant response rating (0 to 100 scale, 0 is no effect, 100 is complete control) [8]: 0
Ducksalad plant response rating (0 to 100 scale, 0 is no effect, 100 is complete control) [9]: 50
Rice plant response rating (0 to 100 scale, 0 is no effect, 100 is complete control) (rice (Oryza sativa)): 0
Galium plant response rating ([10]; 31 g ai/ha): 30
Galium plant response rating ([10]; 125 g ai/ha): 90
Barnyardgrass plant response rating ([11]; 31 g ai/ha): 0
Barnyardgrass plant response rating ([11]; 125 g ai/ha): 10
Ryegrass, It. plant response rating ([12]; 31 g ai/ha): 20
Ryegrass, It. plant response rating ([12]; 125 g ai/ha): 30
Wheat plant response rating ([13]; 31 g ai/ha): 0
Wheat plant response rating ([13]; 125 g ai/ha): 0
Ragweed plant response rating ([14]; 31 g ai/ha): 0
Ragweed plant response rating ([14]; 125 g ai/ha): 10
Corn plant response rating (corn (Zea mays); 31 g ai/ha): 0
Corn plant response rating (corn (Zea mays); 125 g ai/ha): 0
Blackgrass plant response rating ([15]; 31 g ai/ha): 0
Blackgrass plant response rating ([15]; 125 g ai/ha): 20
Foxtail, Giant plant response rating ([16]; 31 g ai/ha): 0
Foxtail, Giant plant response rating ([16]; 125 g ai/ha): 10
Pigweed plant response rating ([17]; 31 g ai/ha): 0
Pigweed plant response rating ([17]; 125 g ai/ha): 0
Kochia plant response rating (kochia (Kochia scoparia) [18]; 31 g ai/ha): 0
Kochia plant response rating (kochia (Kochia scoparia) [18]; 125 g ai/ha): 0

COC(=O)Oc1c(C)nn(C)c(=O)c1-c1ccc(Cl)c2cc(C)oc12 [Compound 40]
Plant response rating (0 to 100 scale), Barnyardgrass ([1]; 31 g ai/ha): 0
Plant response rating (0 to 100 scale), Barnyardgrass ([1]; 125 g ai/ha): 20
Plant response rating (0 to 100 scale), Ryegrass, It. ([2]; 31 g ai/ha): 80
Plant response rating (0 to 100 scale), Ryegrass, It. ([2]; 125 g ai/ha): 90
Plant response rating (0 to 100 scale), Ragweed ([3]; 31 g ai/ha): 0
Plant response rating (0 to 100 scale), Ragweed ([3]; 125 g ai/ha): 50
Plant response rating (0 to 100 scale), Foxtail, Giant ([4]; 31 g ai/ha): 0
Plant response rating (0 to 100 scale), Foxtail, Giant ([4]; 125 g ai/ha): 20
Plant response rating (0 to 100 scale), Pigweed ([5]; 31 g ai/ha): 0
Plant response rating (0 to 100 scale), Pigweed ([5]; 125 g ai/ha): 60
Plant response rating (0 to 100 scale), Kochia (kochia (Kochia scoparia) [6]; 31 g ai/ha): 0
Plant response rating (0 to 100 scale), Kochia (kochia (Kochia scoparia) [6]; 125 g ai/ha): 0
Barnyardgrass plant response rating (0 to 100 scale, 0 is no effect, 100 is complete control) [7]: 0
Sedge, Umbrella plant response rating (0 to 100 scale, 0 is no effect, 100 is complete control) [8]: 0
Ducksalad plant response rating (0 to 100 scale, 0 is no effect, 100 is complete control) [9]: 0
Rice plant response rating (0 to 100 scale, 0 is no effect, 100 is complete control) (rice (Oryza sativa)): 0
Galium plant response rating ([10]; 31 g ai/ha): 90
Galium plant response rating ([10]; 125 g ai/ha): 100
Barnyardgrass plant response rating ([11]; 31 g ai/ha): 10
Barnyardgrass plant response rating ([11]; 125 g ai/ha): 20
Ryegrass, It. plant response rating ([12]; 31 g ai/ha): 40
Ryegrass, It. plant response rating ([12]; 125 g ai/ha): 70
Wheat plant response rating ([13]; 31 g ai/ha): 0
Wheat plant response rating ([13]; 125 g ai/ha): 0
Ragweed plant response rating ([14]; 31 g ai/ha): 20
Ragweed plant response rating ([14]; 125 g ai/ha): 40
Corn plant response rating (corn (Zea mays); 31 g ai/ha): 0
Corn plant response rating (corn (Zea mays); 125 g ai/ha): 10
Blackgrass plant response rating ([15]; 31 g ai/ha): 0
Blackgrass plant response rating ([15]; 125 g ai/ha): 20
Foxtail, Giant plant response rating ([16]; 31 g ai/ha): 10
Foxtail, Giant plant response rating ([16]; 125 g ai/ha): 20
Pigweed plant response rating ([17]; 31 g ai/ha): 20
Pigweed plant response rating ([17]; 125 g ai/ha): 40
Kochia plant response rating (kochia (Kochia scoparia) [18]; 31 g ai/ha): 0
Kochia plant response rating (kochia (Kochia scoparia) [18]; 125 g ai/ha): 0
